In one data set the test system is NSCLC. The conditions noted are these: patients treated with docetaxel in the 2nd line setting; cited from earlier work.
The conditions of data set [1]: cited from earlier work.
The next data set has as its target CYP3A4 (Homo sapiens, UniProt P08684). The conditions noted are these: cited from earlier work.
The conditions of data set [2]: human, in vivo; cited from earlier work.
Data set [3] concerns Advanced or Metastatic (Stage IV) Non Small Cell Lung Cancer. Nature of the data set: Phase III study: custirsen plus docetaxel versus docetaxel, second line (Example 3). In kind it is in vivo, human. An excerpt: A Multinational, Randomized, Open-Label Phase III Study of Custirsen (TV-1011/OGX-011) In Combination With Docetaxel Versus Docetaxel As A Second-Line Treatment In Patients with Advanced or Metastatic (Stage IV) Non Small Cell Lung Cancer.
Patients randomized to the custirsen arm (Arm A) have 3 doses of custirsen administered in a 5 to 9 day Loading Dose Period prior to Day 1 of Cycle 1. Patients in Arm A receive custirsen on Days 1, 8 and 15, and docetaxel on Day 1 of the 21-day cycles. Patients in Arm B receive only docetaxel on Day 1 of the 21-day cycles. Patients randomized to both arms have 21-day chemotherapy cycles until disease progression, unacceptable toxicity, withdrawal of consent or protocol specified parameters to stop treatment.
After a screening period of up to 28 days, patients are randomized 1:1 to receive either docetaxel and custirsen (Arm A) or docetaxel (Arm B). Randomization is stratified by gender (male vs. female), NSCLC histology (squamous vs. non-squamous), best overall response to the first-line platinum-based therapy (SD/CR/PR vs. PD) and ECOG PS (0 vs. 1) to minimize imbalance at randomization. Patients randomized to Arm A receive 3 doses of custirsen administered in a 5 to 9 day Loading Dose Period prior to Day 1 of Cycle 1. Following the Loading Dose period, patients in Arm A receive custirsen on Days 1, 8 and 15, and docetaxel on Day 1 of the 21-day cycle. Patients in Arm B receive only docetaxel on Day 1 of the 21-day cycle. Patients randomized to both study arms have 21-day chemotherapy cycles until disease progression, unacceptable toxicity, withdrawal from study treatment, or protocol specified parameters to stop treatment. Patients who are removed from study treatment for any reason other than disease progression or death are followed for documented radiological disease progression. All patients who discontinued study treatment are followed to collect further anticancer treatment and survival information until death, loss to follow-up, withdrawal of consent, or up to 12 months after the end of treatment visit for the last patient on the study, whichever comes first.
Tumor response to study treatment and disease progression are based on the criteria proposed by the Response Evaluation Criteria in Solid Tumors (RECIST) guideline (version 1.1). All patients undergo CT or MRI scans of the chest and upper abdomen, as well as any other areas clinically indicated, at screening, then every 6 weeks, starting at week 8 after randomization until disease progression. Tumor measurement is also performed during the end of treatment visit if it is not done within the previous 6 weeks. Patients who discontinue study treatment for reasons other than disease progression continue to have tumor measurements per RECIST v1.1 until disease progression, start of new anticancer therapy, withdrawal of consent, lost to follow-up, or death, whichever occurs first. Assessment of these scans is carried out in a blinded fashion, by a Central Imaging Lab designated by the Sponsor.
Adverse events and concomitant medications are collected throughout the study up to 28 days after the last dose of study treatment. Medical history is assessed, documented results of EGFR and KRAS mutation status are collected, if available, and an electrocardiogram is performed at screening. Physical examination, assessment of the ECOG Performance Status, vital signs, and laboratory evaluations are conducted at screening and throughout the study.
The general health status, as reported by the patients, are assessed by the Functional Assessment of Cancer Therapy-Lung (FACT-L) questionnaire.
Study Agent: Three loading doses of custirsen 640 mg IV over 2 hours administered in 5 to 9 days prior to Day 1 of Cycle 1, then custirsen 640 mg IV over 2 hours on Days 1, 8 and 15 of a 21-day cycle.
Chemotherapy: Docetaxel 75 mg/m^2 IV over 1 hour on Day 1 of a 21-day cycle. […]

The next data set concerns clusterin. Conditions: cited from earlier work.
The test system of data set [4] is Stage IV Non-Squamous Non-Small Cell Lung Cancer. As to the kind of experiment: Phase III study: paclitaxel/carboplatin with or without custirsen (Examples 1 and 2). In kind it is in vivo, human. The text has this: Subjects randomized to the custirsen arm first receive three doses of custirsen in a 5 to 9 day loading dose period prior to Day 1 of Cycle 1. Subjects randomized to both study arms have 21-day chemotherapy cycles until disease progression, unacceptable toxicity, or completion of 6 cycles; however, subjects randomized to the custirsen arm also receive weekly doses of custirsen starting at Day 1 of each of the 21-day chemotherapy cycles until disease progression, unacceptable toxicity, or completion of all 6 cycles.
This is a randomized, open-label, sponsor-blinded multinational trial. Treatment consists of paclitaxel/carboplatin/custirsen vs. paclitaxel/carboplatin, which compose the two arms of the study.
After a screening period of up to 28 days, subjects are randomly assigned with equal probability to the two arms. Stratified randomization is used in order to minimize between-arm imbalance over four stratification factors: Gender, Eastern Cooperative Oncology Group (ECOG) performance status (0 vs. 1), Smoking status (former/current smoker vs. never-smoker) and Geographical Region (North America, Europe and Southeast Asia).
Subjects randomized to the custirsen arm have a 5 to 9 day loading dose period prior to Day 1 of Cycle 1. […] Subjects who are removed from study treatment for any reason other than disease progression or death are followed for documented disease progression. Once disease progression is documented, subjects enter a survival follow-up phase during which data is collected regarding further cancer treatment and their survival status.
Tumor response to study treatment and disease progression is based on the criteria proposed by the Response Evaluation Criteria in Solid Tumors (RECIST) 1.1 guidelines. All subjects undergo CT or MRI scans of the chest and upper abdomen, as well as any other areas clinically indicated, at screening, then every 6 weeks, starting at week 8 for the first 26 weeks (week 8, 14, 20 and 26) and then every 12 weeks after the week 26 scan until disease progression. These time points are kept within a window of +one week, regardless of the treatment schedule. The week 26 scan is performed as scheduled, regardless of whether the patient is still in the treatment period (i.e. due to treatment delays) or has already completed the end of treatment visit. Once a patient is discontinued from study treatment for documented disease progression, scanning is no longer required. Assessment of these scans is carried out in a blinded fashion, by a Central Imaging Lab.
Adverse events are recorded at each visit during the study and 28 days after the last dose of study treatment. Medical history is assessed at screening and an electrocardiogram is performed. Physical examination, assessment of the ECOG performance status, vital signs and laboratory evaluations are conducted at screening and throughout the study. Adverse events are recorded from when a subject is signed the Informed Consent Form and throughout the study, until the end of the treatment visit (28 days following last dose). They are reviewed and updated at each subsequent visit and during any phone contact with the subject.
The general health status, as reported by the subjects is assessed by the EuroQoL (EQ-5D) and FACT-L questionnaires. Medical resource utilization is also compared between the treatment arms. The EQ-5D is a standardized instrument for use as a measure of health outcome. Applicable to a wide range of health conditions and treatments, it provides a simple descriptive profile and a single index value for health status that can be used in the clinical and economic evaluation of health care as well as population health surveys. EQ-5D is designed for self-completion by subjects. In this study the instrument is self-administrated.
640 mg in 250 mL normal saline IV over 2 hours.
Carboplatin AUC 6.0 mg/ml/min IV over 30 minutes.
The primary outcome measure is overall survival (OS). […]

The conditions of data set [5]: in vivo.
Protocol: Three doses of 640 mg custirsen are administered IV during the Loading Dose Period (Days −9 to −1). There is at least one “non-infusion” day between each administration of custirsen (i.e. every other day) during the Loading Dose Period and between the third loading dose of custirsen and Day 1 of Cycle 1. The day prior to Day 1 of Cycle 1 (Day 0) is a “no treatment” day. There are no more than 4 days between the last loading dose and Day 1 of Cycle 1. A common schedule is to give the three loading doses of custirsen on Monday, Wednesday and Friday with Day 1, Cycle 1 starting on the following Monday. Up to nine days are allowed for completing the three loading doses prior to Day 0 to account for clinic visits, weekends, and holidays. Subjects receive each dose of custirsen as a 2 hour infusion.
The test system of data set [6] is cancerous human prostate, breast, ovarian, lung, renal, bladder, and melanoma cells. The conditions noted are these: cited from earlier work.
A further data set concerns stage IIIB or IV NSCLC. Nature of the data set: Phase 1-2 study of weekly custirsen plus a gemcitabine/platinum-based regimen: survival by serum clusterin. Conditions: for median survival time: plus gemcitabine/platinum. In kind it is in vivo, human. The procedure: The relationship between serum clusterin levels and the duration of individual survival was evaluated during a phase 1-2 study of weekly custirsen plus a gemcitabine/platinum-based regimen in patients with stage IIIB or IV NSCLC. Not all of the patients in this study had baseline levels of clusterin measured. However, starting with N=69 subjects with measured baseline clusterin levels, fitting the Cox proportional hazards (PH) model with baseline clusterin as sole predictor gives p=0.10; the coefficient is positive, so that higher clusterin is associated with increased survival risk. Among the N=55 subjects who also had post-baseline data collected, fitting the same PH model gives p=0.05, again with positive coefficient.
A careful search for possible cutpoints, using all N=69 subjects with baseline clusterin levels, produced 71 μg/mL as a strong candidate.
Among all N=69 subjects with a baseline clusterin level, there were […] with clusterin ≦71 μg/mL (median survival time was 18.8 months), and N=26 subjects with baseline clusterin >71 μg/mL (median survival time was 10.2 months); the log-rank p-value=0.004. Removing the N=14 early discontinuers leaves N=35 subjects with baseline clusterin ≦71 μg/mL (median survival time was 28.7 months), and N=20 subjects with baseline clusterin >71 μg/mL (median survival time was 12.2 months); the log-rank p-value=0.0002.
To further assess the relevance of baseline clusterin as a predictor of survival, data from the study were further segregated based on average and minimum clusterin levels achieved during treatment.

Like-named read-outs stand apart in the source and are kept apart here. In the oligonucleotide strings, read from the 5' end, every base follows the letter of its sugar. An asterisk marks phosphorothioate; unmarked linkages are phosphodiester. Other units and linkages are bracketed, terminal groups are in braces. A string of capitals states the bases alone. e = 2'-O-(2-methoxyethyl) (MOE); [5mC] = 5-methylcytosine; d = 2'-deoxy (DNA)

CYP3A4, sequence (P08684 whole entry): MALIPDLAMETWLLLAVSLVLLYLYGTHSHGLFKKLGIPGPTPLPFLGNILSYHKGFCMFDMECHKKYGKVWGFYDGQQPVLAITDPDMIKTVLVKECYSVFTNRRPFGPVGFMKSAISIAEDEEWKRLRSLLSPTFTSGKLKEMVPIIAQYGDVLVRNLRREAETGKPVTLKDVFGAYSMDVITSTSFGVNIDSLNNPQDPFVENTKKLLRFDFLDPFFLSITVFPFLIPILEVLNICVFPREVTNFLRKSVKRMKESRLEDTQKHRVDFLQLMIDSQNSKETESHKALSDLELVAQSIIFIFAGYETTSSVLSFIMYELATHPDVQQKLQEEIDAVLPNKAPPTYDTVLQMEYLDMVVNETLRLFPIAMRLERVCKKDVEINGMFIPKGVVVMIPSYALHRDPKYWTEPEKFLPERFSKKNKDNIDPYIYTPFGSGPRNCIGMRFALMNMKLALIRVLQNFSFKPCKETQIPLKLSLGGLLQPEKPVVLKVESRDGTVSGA

Take `CC(=O)O[C@@]12CO[C@@H]1C[C@H](O)[C@@]1(C)C(=O)[C@H](O)C3=C(C)[C@@H](OC(=O)[C@H](O)[C@@H](NC(=O)OC(C)(C)C)c4ccccc4)C[C@@](O)([C@@H](OC(=O)c4ccccc4)[C@H]21)C3(C)C` [Docetaxel]: in the data set on NSCLC, the “median PFS” value was “about 3 months”. Moreover, the “grade 4 neutropenia (<500 cells/mm^3), patients affected” value in data set [1] (60 mg/m^2) is on record as 75%; in data set [1] (100 mg/m^2), 85%. Besides, the “Neutropenia (<2,000 neutrophils/mm3), patients affected” value in [1] (60-100 mg/m^2) is “virtually all patients”. The “incidence of treatment-related mortality” value in data set [1] (abnormal liver function, higher doses, or NSCLC with prior platinum-based chemotherapy, single agent 100 mg/m^2) is given as “increased”. In addition, in data set [1] (human, in vivo), the “most common side effects” value is “infections, neutropenia, anemia, febrile neutropenia, hypersensitivity, thrombocytopenia, neuropathy, dysgeusia, dyspnea, constipation, anorexia, nail disorders, fluid retention, asthenia, pain, nausea, diarrhea, vomiting, mucositis, alopecia, skin reactions and myalgia”. The CYP3A4 substrate status entry on CYP3A4 is “CYP3A4 substrate”.
As for `N.N.O=C([O-])C1(C(=O)[O-])CCC1.[Pt+2]` [carboplatin, Carboplatin], the major dose-limiting toxicity result in [2] is “Bone marrow suppression”.
In the case of “custirsen: anti-clusterin antisense oligonucleotide CAGCAGCAGAGTCTTCATCAT (Seq. ID No.: 1), phosphorothioate backbone, 2′-O-methoxyethyl at nucleotides 1-4 and 18-21, 5-methylcytosines at 1, 4, 19 (antisense e[5mC]*eA*eG*e[5mC]*dA*dG*dC*dA*dG*dA*dG*dT*dC*dT*dT*dC*dA*eT*e[5mC]*eA*eT; listed as Homo sapiens)”, the overall survival entry in data set [3] (Arm A (custirsen+docetaxel) compared to Arm B (docetaxel)) and in [4] (Arm A (custirsen+paclitaxel/carboplatin) compared to Arm B (paclitaxel/carboplatin)) was “prolonged survival” in each case. Also, the progression free survival entry in data set [3] (Arm A compared to Arm B) and in [4] (Arm A compared to Arm B) was “increased” throughout. Further, the “proportion of subjects surviving free of progression for at least 14 weeks” value in data set [3] (Arm A compared to Arm B) and in data set [4] (Arm A compared to Arm B) was “statistically significant higher proportion” in each case. Moreover, the quality of life entry in [3] (Arm A compared to Arm B) and in [4] (Arm A compared to Arm B) was “improves” throughout. The “symptoms of NSCLC (chest pain, pleural effusions, pulmonary edema, dyspnea, hemoptysis)” value in data set [3] (Arm A compared to Arm B) and in data set [4] (Arm A compared to Arm B) was “occasionally improve” in each case. Moreover, the safety and tolerability entry was “safe and well tolerated” in data set [3] (custirsen 640 mg IV + docetaxel 75 mg/m^2 (Arm A)); “safe and well tolerated” in data set [4] (custirsen 640 mg IV + paclitaxel/carboplatin (Arm A)). The expression of clusterin entry in the data set on clusterin was “potently reduces the expression of clusterin”. Also, the “survival by baseline serum clusterin” value in [4] (Arm A patients, baseline clusterin below 71 μg/mL versus above 71 μg/mL) is “tend to survive longer”. In addition, the “grade 1-2 constitutional symptoms (e.g., fever and chills), subjects affected” value in [5] is given as 50-60%. Further, in data set [6], the apoptosis entry was “facilitates apoptosis”. For the same compound, the “sensitization of cancer cells to chemotherapy” value in [6] is recorded as “sensitizes”. Also, the “probability of extended survival by baseline and on-treatment clusterin” value with stage IIIB or IV NSCLC (low baseline clusterin (71 μg/mL cutpoint) and low levels during therapy (33 μg/mL average or 30 μg/mL minimum cutpoint)) was “greatest probability of extended survival”. Also, the median survival time with stage IIIB or IV NSCLC (all subjects with baseline clusterin level, clusterin >71 μg/mL (N=26)) was 10.2 months; in the data set on stage IIIB or IV NSCLC (all subjects with baseline clusterin level, clusterin ≦71 μg/mL (N=45)), 18.8 months; in the data set on stage IIIB or IV NSCLC (early discontinuers removed, baseline clusterin >71 μg/mL (N=20)) it was 12.2 months; with stage IIIB or IV NSCLC (early discontinuers removed, baseline clusterin ≦71 μg/mL (N=35)), 28.7 months.
